One data set concerns BALB/C mice. Description: In vivo imaging of Fluc-mRNA expression in mice delivered by LNP formulations. Particulars: for average radiation intensity, 6 h / average radiation intensity, 24 h / average radiation intensity, 7 d / average radiation intensity, 48 h: LNP containing 10 pg Fluc-mRNA, intramuscular, female BALB/C mice. In outline:
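Female BALB/C mice (4-6 weeks, 17-19 g) received LNP carrying […] Fluc-mRNA intramuscularly. Substrate was given intraperitoneally at 6 h, 24 h, 48 h and 7 d, and average radiance was imaged by IVIS 5 min later.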

In data set [1] the test system is 293T cells. Briefly: Cell survival rate determination (CCK-8). In kind it is cell-based. The settings on record: for Cell survival rate (%): LNP formulation containing 1.5 μg Fluc-mRNA, 24 hours, CCK-8, absorbance at 450 nm; for cell survival rate lower than that of YK-101: cell survival rate of YK-101 minus that of named substance; for cell survival rate lower than that of YK-107: cell survival rate of YK-107 minus that of named substance; for cell survival rate lower than that of YK-108: cell survival rate of YK-108 minus that of named substance. In outline: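 293T cells were seeded overnight at 10,000 cells/well in 96-well plates, then exposed for 24 h to LNP containing 1.5 μg Fluc-mRNA (cationic:neutral:structural:polymer-conjugated lipid, 49:10:39.5:1.5 molar) or to Lipofectamine 3000. Viability was read by CCK-8, 1 h incubation, absorbance 450 nm.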

Data set [2] is described as follows: Determination of particle size and polydispersity index (PDI) of lipid nanoparticles by dynamic light scattering. In kind it is physicochemical. Particulars: LNP formulation of named cationic lipid/DSPC/cholesterol/DMG-PEG2000 49:10:39.5:1.5; for Particle size (nm): 90° scattering angle, 25° C. In outline:
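LNPs of cationic lipid/DSPC/cholesterol/DMG-PEG2000 (49:10:39.5:1.5 mol%), lipid:mRNA 15:1 w/w, carrying eGFP or Fluc mRNA, made by ethanol injection into citrate buffer pH 4–5, sonicated, PBS-exchanged by ultrafiltration. Size and PDI by dynamic light scattering after dilution in RNase-free water, 90° angle, 25 °C, triplicate.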

Data set [3] deals with 293T cells. Briefly: Fluorescent detection of Fluc-mRNA (cell transfection efficiency of LNP formulations). In kind it is cell-based. Particulars: for Relative light unit (RLU): LNP formulation containing 0.3 μg Fluc-mRNA, 96-well plate, 24 hours; for Multiples (YK-101): RLU of YK-101 / RLU of named substance; for Multiples (YK-107): RLU of YK-107 / RLU of named substance; for Multiples (YK-108): RLU of YK-108 / RLU of named substance; for Ratio relative to SM-102: RLU of named substance / RLU of SM-102. In outline: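 293T cells seeded at 10,000 per well, cultured overnight, then given LNP carrying 0.3 μg Fluc-mRNA (cationic:neutral:structured:PEG-lipid 49:10:39.5:1.5 molar). Incubated 24 h. Luciferase signal read with kit reagent on an IVIS imaging system.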

Take `CCCCCCCCCCCCC(O)CN(C)CCCCCC(=O)OCC(CCCCCC)CCCCCCCC` (stereo not drawn) [HHMA, reference compound]: in the data set on BALB/C mice (6 h), the “average radiation intensity of YK-101, times that of named substance” value turned out to be 2.3 times; the “average radiation intensity of YK-107, times that of named substance” value is reported as 2.5 times; the “average radiation intensity of YK-108, times that of named substance” value came to 3.2 times; the “average radiation intensity, 6 h” value amounted to 639280. Besides, in the data set on BALB/C mice (24 h), the “average radiation intensity of YK-101, times that of named substance” value was 9.1 times; the “average radiation intensity of YK-107, times that of named substance” value amounted to 11.3 times; the “average radiation intensity of YK-108, times that of named substance” value was 12.2 times; the “average radiation intensity, 24 h” value was 115530. In the data set on BALB/C mice (48 h), the “average radiation intensity of YK-101, times that of named substance” value amounted to 6.0 times; the “average radiation intensity of YK-107, times that of named substance” value is 7.3 times; the “average radiation intensity of YK-108, times that of named substance” value was 7.5 times. In the data set with BALB/C mice (7 d), the “average radiation intensity of YK-101, times that of named substance” value came to 2.3 times; the “average radiation intensity of YK-107, times that of named substance” value is recorded as 2.5 times; the “average radiation intensity of YK-108, times that of named substance” value is 2.7 times; the “average radiation intensity, 7 d” value came out at 5235. In the data set on 293T cells [1], the “Cell survival rate (%)” value stood at 67.77%, the “cell survival rate lower than that of YK-101” value stood at 22.35%, the “cell survival rate lower than that of YK-107” value is reported as 22.68% and the “cell survival rate lower than that of YK-108” value is recorded as 22.09%. In data set [2], the “PDI(%)” value is given as 12.2% and the “Particle size (nm)” value is 138 nm. Moreover, in the data set with 293T cells [3], the “Relative light unit (RLU)” value is on record as 2047757 RLU, the “Multiples (YK-101)” value was 9.93, the “Multiples (YK-107)” value was 10.92 and the “Multiples (YK-108)” value stood at 12.04. Moreover, the “Ratio relative to SM-102” value in the data set on 293T cells [3] came out at 1.33.
`CCCCCCCCCCOC(=O)CCCN(CCO)CCCCCC(=O)OCC(CCCCCCCC)CCCCCCCC` [YK-009, reference compound]: the “average radiation intensity, 6 h” value in the data set with BALB/C mice (6 h) turned out to be 1055200. In addition, in the data set on BALB/C mice (24 h), the “average radiation intensity, 24 h” value was determined as 770050. Besides, in the data set on BALB/C mice (48 h), the “average radiation intensity, 48 h” value was determined as 132100. Moreover, the “average radiation intensity, 7 d” value in the data set with BALB/C mice (7 d) is 10665. For the same compound, in the data set on 293T cells [1], the “Cell survival rate (%)” value is listed as 73.57%, the “cell survival rate lower than that of YK-101” value stood at 16.55%, the “cell survival rate lower than that of YK-107” value was 16.88% and the “cell survival rate lower than that of YK-108” value worked out at 16.29%. In data set [2], the “PDI(%)” value is 12.1% and the “Particle size (nm)” value is reported as 205 nm. In the data set on 293T cells [3], the “Relative light unit (RLU)” value was determined as 5075954 RLU, the “Multiples (YK-101)” value stood at 4.01, the “Multiples (YK-107)” value is reported as 4.41 and the “Multiples (YK-108)” value is 4.86. Moreover, the “Ratio relative to SM-102” value in the data set with 293T cells [3] is listed as 3.31.
`CCCCCCCCC(CCCCCC)C(=O)OCCCCCCN(CCCCO)CCCCCCOC(=O)C(CCCCCC)CCCCCCCC` (stereo not drawn) [ALC-0315, reference compound]: in the data set on BALB/C mice (6 h), the “average radiation intensity of YK-101, times that of named substance” value is on record as 1.8 times; the “average radiation intensity of YK-107, times that of named substance” value turned out to be 1.9 times; the “average radiation intensity of YK-108, times that of named substance” value was determined as 2.4 times; the “average radiation intensity, 6 h” value is 830590. Besides, in the data set with BALB/C mice (24 h), the “average radiation intensity of YK-101, times that of named substance” value is on record as 5.9 times; the “average radiation intensity of YK-107, times that of named substance” value came to 7.2 times; the “average radiation intensity of YK-108, times that of named substance” value is listed as 7.8 times; the “average radiation intensity, 24 h” value is 179680. In the data set on BALB/C mice (48 h), the “average radiation intensity of YK-101, times that of named substance” value is recorded as 4.8 times; the “average radiation intensity of YK-107, times that of named substance” value was 5.8 times; the “average radiation intensity of YK-108, times that of named substance” value was 5.9 times; the “average radiation intensity, 48 h” value is on record as 39015. For the same compound, in the data set with BALB/C mice (7 d), the “average radiation intensity of YK-101, times that of named substance” value worked out at 1.8 times; the “average radiation intensity of YK-107, times that of named substance” value was found to be 2.0 times; the “average radiation intensity of YK-108, times that of named substance” value turned out to be 2.1 times; the “average radiation intensity, 7 d” value amounted to 6643. Also, in the data set with 293T cells [1], the “Cell survival rate (%)” value was determined as 51.02%, the “cell survival rate lower than that of YK-101” value is recorded as 39.10%, the “cell survival rate lower than that of YK-107” value was determined as 39.43% and the “cell survival rate lower than that of YK-108” value was determined as 38.84%. Besides, in data set [2], the “PDI(%)” value turned out to be 15.0% and the “Particle size (nm)” value is on record as 209 nm. In the data set with 293T cells [3], the “Relative light unit (RLU)” value is on record as 2056890 RLU, the “Multiples (YK-101)” value turned out to be 9.89, the “Multiples (YK-107)” value is given as 10.87 and the “Multiples (YK-108)” value is recorded as 11.99. For the same compound, the “Ratio relative to SM-102” value in the data set on 293T cells [3] was determined as 1.34.
In the case of `CCCCCCCCCC(=O)OCCCCN(CCO)CCCCCC(=O)OCC(CCCCCCCC)CCCCCCCC` [YK-106], in the data set with BALB/C mice (6 h), the “average radiation intensity of YK-101, times that of named substance” value is reported as 2.2 times; the “average radiation intensity of YK-107, times that of named substance” value worked out at 2.3 times; the “average radiation intensity of YK-108, times that of named substance” value is given as 2.9 times; the “average radiation intensity, 6 h” value is listed as 683840. Also, in the data set on BALB/C mice (24 h), the “average radiation intensity of YK-101, times that of named substance” value amounted to 10.0 times; the “average radiation intensity of YK-107, times that of named substance” value amounted to 12.3 times; the “average radiation intensity of YK-108, times that of named substance” value was found to be 13.3 times; the “average radiation intensity, 24 h” value came out at 105776. Further, in the data set with BALB/C mice (48 h), the “average radiation intensity of YK-101, times that of named substance” value is listed as 5.6 times; the “average radiation intensity of YK-107, times that of named substance” value was found to be 6.9 times; the “average radiation intensity of YK-108, times that of named substance” value is given as 7.0 times; the “average radiation intensity, 48 h” value stood at 32940. In addition, in the data set on BALB/C mice (7 d), the “average radiation intensity of YK-101, times that of named substance” value was determined as 1.7 times; the “average radiation intensity of YK-107, times that of named substance” value worked out at 1.9 times; the “average radiation intensity of YK-108, times that of named substance” value came out at 2.0 times; the “average radiation intensity, 7 d” value was 7052. In addition, in the data set with 293T cells [1], the “Cell survival rate (%)” value worked out at 59.59%, the “cell survival rate lower than that of YK-101” value is recorded as 30.53%, the “cell survival rate lower than that of YK-107” value is 30.86% and the “cell survival rate lower than that of YK-108” value amounted to 30.27%. Also, in data set [2], the “PDI(%)” value was found to be 14.4% and the “Particle size (nm)” value was found to be 140 nm. Besides, in the data set on 293T cells [3], the “Relative light unit (RLU)” value worked out at 1628063 RLU, the “Multiples (YK-101)” value was found to be 12.49, the “Multiples (YK-107)” value was 13.73 and the “Multiples (YK-108)” value is 15.15. For the same compound, in the data set with 293T cells [3], the “Ratio relative to SM-102” value came to 1.06. Moreover, the “difference from SM-102 in Fluc-mRNA fluorescence (GraphPad Prism analysis)” value in the data set with 293T cells [3] (statistical comparison with SM-102) is on record as “no significant difference”.
